Measured values as given in patent publication US9732044B2, “N-(pyrid-4-yl)amides and N-(pyrimidin-4-yl)amides and their pharmaceutical and cosmetic use” (GALDERMA RESEARCH & DEVELOPMENT, priority 2011, dated 2017).
Like-named read-outs stand apart in the source and are kept apart here.

Experiments:
androgen receptor (AR) = androgen receptor (AR) (Homo sapiens (Human), UniProt P10275); test: Androgen receptor transactivation test in PALM cell line (cross curves against methyl trienolone); type: cell-based
Protocol: This AR inhibiting activity was measured in a transactivation test by the dissociation constants KdR (rest), KdA (active), and Kdapp (apparent).
A compound may be said to be an AR inhibitor if it has a dissociation constant, Kdapp, of less than or equal to 1 μM, and a KdR/KdA ratio of less than or equal to 10 in a transactivation test.
The transactivation test is carried out in the cell line PALM (PC3 androgen receptor Luciferase MMTV), which is a stable transfectant containing the plasmids PMMTV-neo-Luc (reporter gene) and pSG5puro-AR.
In this study, the affinity of each test compound for the 2 states of the receptor (KdR and KdA) is determined together with the apparent Kd (KdApp). This constant depends upon the 2 Kd's (KdR and KdA), but also depends on the initial equilibrium of the receptor between the active state and rest state (L0) and on its expression rate. It is determined by the following formula: 1/KdApp=(L0/(1+L0))×(1/KdR)+(1/(1+L0))×(1/KdA)
In order to determine these constants, “cross curves” of the test compound against a reference agonist, methyl trienolone, are carried out on a 96-well plate. The test compound is used in 10 concentrations and the reference agonist in 7 concentrations.

[1] = system: sebaceous gland of the ear of a Syrian hamster; test: In vivo animal model with reduction in the size of the sebaceous glands (Syrian hamster ear); conditions: 1 g %/mL solution, topical on ear, daily for 24 days, compared to control (absolute ethanol)
Text: The model of the sebaceous gland of the ear of a Syrian hamster described by Plewig and Luderschmidt in J. Inv. Derm., (1977), pp. 171-176 is a classical tool for the in vivo study of the function of the sebaceous gland. In fact, the inner faces of the ear lobes of the hamster contain a high number of sebaceous glands described as being similar to those of human sebaceous follicles in terms of certain characteristics, including their morphology and response to androgens and anti-androgens. In fact the growth and lipogenesis of the sebaceous glands on the inner face of the ear of Syrian hamsters depend on the androgens. The anti-androgenic activity of test compounds can be easily evaluated by measuring the size of the sebaceous glands. Moreover, this model has been selected to evaluate the efficacy of the antagonists of the receptor to the androgens on the sebaceous gland.
Test compounds were evaluated according to the following protocol: male hamsters aged weeks were treated daily for 24 days on the inner face of the right ear with 30 μL of a solution of the test compound to be evaluated in absolute ethanol. For each test compound, groups were treated with solutions at a range of concentrations (e.g., from 0.01 g %/mL to 3 g %/mL), as well as absolute ethanol used as a control. (A concentration of 3 g %/mL means a concentration of 0.03 g/mL.)
At the end of the study, samples were taken from the treated ears. The skin of the inner face of the ear was separated from the cartilage. Under a binocular magnifying glass, two zones of 4 mm^2 were numbered. The size of the sebaceous glands was measured on the numerical images by manually trimming the glands by means of image analysis software (TINA.20). For each image some twenty glands were measured. The average area of the sebaceous glands was calculated for each treatment group.
A Student t-test for independent groups comparing each dose with vehicle was carried out to compare the average size of the sebaceous glands as a function of the doses applied. When the evolution of the effect is represented graphically as a function of the administered dose of test compound, the curve obtained is sigmoid in shape. In the median part, this sigmoid may be likened to a straight line. The dose corresponding to 50% of the maximum effect corresponds graphically to the point located in the centre of the linear section defined as “effective dose 50”. This DE50 characterises the potency of the test compound.

[2] = threshold lists, PALM cells, read-out: Kdapp
[3] = apparent dissociation constant, PALM cells (PC3 androgen receptor Luciferase MMTV), read-out: Kdapp

Sequence of androgen receptor (AR) (P10275 whole entry): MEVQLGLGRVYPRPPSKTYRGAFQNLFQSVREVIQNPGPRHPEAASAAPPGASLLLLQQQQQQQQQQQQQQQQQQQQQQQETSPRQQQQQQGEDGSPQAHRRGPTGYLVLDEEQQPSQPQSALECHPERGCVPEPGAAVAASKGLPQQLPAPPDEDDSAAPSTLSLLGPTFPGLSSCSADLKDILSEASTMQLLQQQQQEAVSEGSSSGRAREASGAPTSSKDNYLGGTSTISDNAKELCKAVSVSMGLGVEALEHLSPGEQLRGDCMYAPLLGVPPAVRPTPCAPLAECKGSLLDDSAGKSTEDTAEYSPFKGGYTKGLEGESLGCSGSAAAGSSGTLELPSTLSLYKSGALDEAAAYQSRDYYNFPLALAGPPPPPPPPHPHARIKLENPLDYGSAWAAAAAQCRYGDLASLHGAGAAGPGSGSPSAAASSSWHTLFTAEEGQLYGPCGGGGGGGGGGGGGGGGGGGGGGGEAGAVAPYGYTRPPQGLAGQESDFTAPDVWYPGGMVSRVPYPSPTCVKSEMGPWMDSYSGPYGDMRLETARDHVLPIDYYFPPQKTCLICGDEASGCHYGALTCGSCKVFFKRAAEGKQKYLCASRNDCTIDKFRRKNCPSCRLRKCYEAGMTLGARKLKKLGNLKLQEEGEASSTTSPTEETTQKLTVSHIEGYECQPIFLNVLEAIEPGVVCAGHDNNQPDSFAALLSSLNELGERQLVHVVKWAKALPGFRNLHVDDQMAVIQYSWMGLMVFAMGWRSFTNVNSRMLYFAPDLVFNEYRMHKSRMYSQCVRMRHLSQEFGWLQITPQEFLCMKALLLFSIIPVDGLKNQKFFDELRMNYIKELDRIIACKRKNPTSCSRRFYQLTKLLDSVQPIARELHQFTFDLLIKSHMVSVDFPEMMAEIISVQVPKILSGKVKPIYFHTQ

| Kd (androgen receptor (AR); [2]) [nM] | Kd (androgen receptor (AR); [3]) [nM] | Compound | Reduction of sebaceous glands (following treatment at 1 g %/mL) [1] [%] | Kd (androgen receptor (AR); Kdapp, threshold lists, PALM cells) [nM] |
| --- | --- | --- | --- | --- |
| ≤ 100 |  | COc1cc(NC(=O)C(C)(O)C(C)C)cc(Br)n1 (stereo not shown) [Compound 76B, N-(2-Bromo-6-methoxy-pyridin-4-yl)-2-hydroxy-2,3-dimethyl-butyramide] |  |  |
| ≤ 30 |  | CCC(O)(C(=O)Nc1ccnc(Br)c1)C1CCCC1 (stereo not shown) [Compound 77B, N-(2-Bromo-pyridin-4-yl)-2-cyclopentyl-2-hydroxy-butyramide] |  |  |
| ≤ 30 |  | CCCC(O)(C(=O)Nc1cc(Br)nc(OC)c1)C(C)C (stereo not shown) [Compound 79A, 2-Hydroxy-2-isopropyl-pentanoic acid (2-bromo-6-methoxy-pyridin-4-yl)-amide] | 48 |  |
| ≤ 30 |  | CCCC(O)(C(=O)Nc1cc(Br)nc(OC)c1)C(C)C (stereo not shown) [Compound 79B, 2-Hydroxy-2-isopropyl-pentanoic acid (2-bromo-6-methoxy-pyridin-4-yl)-amide] |  |  |
| ≤ 100 |  | CCC(O)(C(=O)Nc1cc(Br)nc(OC)c1)C1CCCC1 (stereo not shown) [Compound 73B, N-(2-Bromo-6-methoxy-pyridin-4-yl)-2-cyclopentyl-2-hydroxy-butyramide] |  |  |
| ≤ 30 |  | CCC(O)(C(=O)Nc1cc(Br)nc(OC)c1)C(C)C (stereo not shown) [Compound 74A, N-(2-Bromo-6-methoxy-pyridin-4-yl)-2-ethyl-2-hydroxy-3-methyl-butyramide] |  |  |
| ≤ 30 |  | CCC(O)(C(=O)Nc1cc(Br)nc(OC)c1)C1CCCC1 (stereo not shown) [Compound 73A, N-(2-Bromo-6-methoxy-pyridin-4-yl)-2-cyclopentyl-2-hydroxy-butyramide] |  |  |
| ≤ 30 |  | CCC(O)(C(=O)Nc1cc(Br)nc(OC)c1)C(C)C (stereo not shown) [Compound 74B, N-(2-Bromo-6-methoxy-pyridin-4-yl)-2-ethyl-2-hydroxy-3-methyl-butyramide] | 61 |  |
| ≤ 300 |  | CCCCC(C)(O)C(=O)Nc1ccnc(Br)c1 (single isomer, unassigned) [Compound 80B, 2-Hydroxy-2-methyl-hexanoic acid (2-bromo-pyridin-4-yl)-amide] |  |  |
| ≤ 30 |  | CCC(O)(C(=O)Nc1ccnc(Br)c1)C1CCCC1 (stereo not shown) [Compound 77A, N-(2-Bromo-pyridin-4-yl)-2-cyclopentyl-2-hydroxy-butyramide] |  |  |
| ≤ 100 |  | CCCC(O)(CC)C(=O)Nc1cc(Br)nc(OC)c1 (stereo not shown) [Compound 75A, 2-Ethyl-2-hydroxy-pentanoic acid (2-bromo-6-methoxy-pyridin-4-yl)-amide] |  |  |
| ≤ 100 |  | CCCC(O)(CC)C(=O)Nc1cc(Br)nc(OC)c1 (stereo not shown) [Compound 75B, 2-Ethyl-2-hydroxy-pentanoic acid (2-bromo-6-methoxy-pyridin-4-yl)-amide] |  |  |

The next lines start with the compound.

| Compound | Kd (androgen receptor (AR); [2]) [nM] | Kd (androgen receptor (AR); [3]) [nM] | Reduction of sebaceous glands (following treatment at 1 g %/mL) [1] [%] | Kd (androgen receptor (AR); Kdapp, threshold lists, PALM cells) [nM] |
| --- | --- | --- | --- | --- |
| COc1ccc(CCC(C)(O)C(=O)Nc2ccnc(Br)c2)cc1 (stereo not shown) [Compound 24, N-(2-Bromo-pyridin-4-yl)-2-hydroxy-4-(4-methoxy-phenyl)-2-methyl-butyramide] | ≤ 300 | 300 |  |  |
| CCCC(C)(O)C(=O)Nc1cc(Br)nc(OC)c1 (stereo not shown) [Compound 78B, 2-Hydroxy-2-methyl-pentanoic acid (2-bromo-6-methoxy-pyridin-4-yl)-amide] | ≤ 100 |  | 50 |  |
| CCC(O)(C(=O)Nc1cc(Br)nc(OC)c1)C(C)C (stereo not shown) [Compound 13, N-(2-Bromo-6-methoxy-pyridin-4-yl)-2-ethyl-2-hydroxy-3-methyl-butyramide] | ≤ 30 |  |  |  |
| CCCC(C)(O)C(=O)Nc1cc(Br)nc(OC)c1 (stereo not shown) [Compound 60, 2-Hydroxy-2-methyl-pentanoic acid (2-bromo-6-methoxy-pyridin-4-yl)-amide] | ≤ 100 |  |  |  |
| CCCC(O)(C(=O)Nc1cc(Br)nc(OC)c1)C(C)C (stereo not shown) [Compound 64, 2-Hydroxy-2-isopropyl-pentanoic acid (2-bromo-6-methoxy-pyridin-4-yl)-amide] | ≤ 30 |  |  |  |
| CC(O)(C(=O)Nc1ccnc(Br)c1)c1ccccc1 (stereo not shown) [Compound 32, N-(2-Bromo-pyridin-4-yl)-2-hydroxy-2-phenyl-propionamide] | ≤ 100 | 100 |  |  |
| CCC(O)(C(=O)Nc1ccnc(Br)c1)C1CCCC1 (stereo not shown) [Compound 51, N-(2-Bromo-pyridin-4-yl)-2-cyclopentyl-2-hydroxy-butyramide] | ≤ 30 |  |  |  |
| COc1cc(NC(=O)C(C)(O)C(C)C)cc(Br)n1 (stereo not shown) [Compound 25, N-(2-Bromo-6-methoxy-pyridin-4-yl)-2-hydroxy-2,3-dimethyl-butyramide] | ≤ 30 |  |  |  |
| COc1cc(NC(=O)C(C)(O)CC(C)C)cc(Br)n1 (single isomer, unassigned) [Compound 71B] | ≤ 30 |  | 56 |  |
| COc1cc(NC(=O)C(O)(C(C)C)C(C)C)cc(Br)n1 [Compound 68, N-(2-Bromo-6-methoxy-pyridin-4-yl)-2-hydroxy-2-isopropyl-3-methyl-butyramide] |  |  | 57 | ≤ 30 |
| CCCC(C)(O)C(=O)Nc1ccnc(C(=O)OC)c1 (stereo not shown) [Compound 59, 4-(2-Hydroxy-2-methyl-pentanoylamino)-pyridine-2-carboxylic acid methyl ester] | ≤ 10000 | 6000 |  |  |
| CCCCC(C)(O)C(=O)Nc1cc(Br)nc(OC)c1 (stereo not shown) [Compound 72A, 2-Hydroxy-2-methyl-hexanoic acid (2-bromo-6-methoxy-pyridin-4-yl)-amide] | ≤ 30 |  | 48 |  |
| CCCC(C)(O)C(=O)Nc1ccnc(Br)c1 (stereo not shown) [Compound 1, 2-Hydroxy-2-methyl-pentanoic acid (2-bromo-pyridin-4-yl)-amide] | ≤ 100 | 75 | 53 |  |
| COc1cc(NC(=O)C(C)(O)CC(C)C)cc(Br)n1 (racemic) [Compound 41, 2-Hydroxy-2,4-dimethyl-pentanoic acid (2-bromo-6-methoxy-pyridin-4-yl)-amide] | ≤ 30 | 20 | 61 |  |
| CCCCC(C)(O)C(=O)Nc1cc(Br)nc(OC)c1 (stereo not shown) [Compound 8, 2-Hydroxy-2-methyl-hexanoic acid (2-bromo-6-methoxy-pyridin-4-yl)-amide] | ≤ 30 | 30 | 56 |  |
| CCCCC(O)(CCCC)C(=O)Nc1ccnc(Br)c1 [Compound 23, 2-Butyl-2-hydroxy-hexanoic acid (2-bromo-pyridin-4-yl)-amide] | ≤ 30 | 15 | 51 |  |
| COc1cc(NC(=O)C(C)(O)C2CCOCC2)cc(Br)n1 (stereo not shown) [Compound 69, N-(2-Bromo-6-methoxy-pyridin-4-yl)-2-hydroxy-2-(tetrahydro-pyran-4-yl)-propionamide] | ≤ 1000 |  |  |  |
| CCCC(C)(O)C(=O)Nc1cc(Br)nc(OC)c1 (stereo not shown) [Compound 78A, 2-Hydroxy-2-methyl-pentanoic acid (2-bromo-6-methoxy-pyridin-4-yl)-amide] | ≤ 100 |  |  |  |
| COc1cc(NC(=O)C(C)(O)c2ccc(F)cc2)ccn1 (stereo not shown) [Compound 27, 2-(4-Fluoro-phenyl)-2-hydroxy-N-(2-methoxy-pyridin-4-yl)-propionamide] | ≤ 300 |  |  |  |
| CCC(O)(C(=O)Nc1cc(Br)nc(OC)c1)C1CCCC1 (stereo not shown) [Compound 9, N-(2-Bromo-6-methoxy-pyridin-4-yl)-2-cyclopentyl-2-hydroxy-butyramide] | ≤ 30 |  |  |  |
| COc1cc(NC(=O)C(C)(O)CC(C)C)cc(Br)n1 (single isomer, unassigned) [Compound 71A] | ≤ 30 |  |  |  |
| CCCCC(O)(CCCC)C(=O)Nc1cc(Br)nc(OC)c1 [Compound 66, 2-Butyl-2-hydroxy-hexanoic acid (2-bromo-6-methoxy-pyridin-4-yl)-amide] | ≤ 100 |  |  |  |
| COc1cc(NC(=O)C(C)(C)O)cc(Br)n1 [Compound 38, N-(2-Bromo-6-methoxy-pyridin-4-yl)-2-hydroxy-2-methyl-propionamide] | ≤ 300 |  |  |  |
